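Values below derive from 48-hour exposures of cells grown in 96-well plates, with endpoints linearly interpolated between the two concentrations bracketing the appropriate inhibition level. Here, GI50 denotes the concentration required for 50% inhibition of growth.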 Calls of active or inactive are those of the source. Cut-off read from the data, not from the text of the source: active = GI50 up to about 1.1 µM and inactive = higher.
Tests used:
Test in all cases: DTP human tumour cell line panel, 48 h
786-0 = test system: 786-0
A498 = test system: A498
A549 = test system: A549
ACHN = test system: ACHN
BT-549 = test system: BT-549
CAKI-1 = test system: CAKI-1
CCRF-CEM = test system: CCRF-CEM
COLO 205 = test system: COLO 205
DU-145 = test system: DU-145
EKVX = test system: EKVX
HCC 2998 = test system: HCC 2998
HCT-116 = test system: HCT-116
HCT-15 = test system: HCT-15
HL-60 = test system: HL-60
HOP-62 = test system: HOP-62
HOP-92 = test system: HOP-92
HT-29 = test system: HT-29
Hs-578T = test system: Hs-578T
IGROV-1 = test system: IGROV-1
K562 = test system: K562
KM12 = test system: KM12
LOX IMVI = test system: LOX IMVI
M14 = test system: M14
MCF7 = test system: MCF7
MDA-MB-231 = test system: MDA-MB-231
MDA-MB-435 = test system: MDA-MB-435
MDA-N = test system: MDA-N
MOLT-4 = test system: MOLT-4
Malme-3M = test system: Malme-3M
NCI-H226 = test system: NCI-H226
NCI-H23 = test system: NCI-H23
NCI-H522 = test system: NCI-H522
NCI/ADR-RES = test system: NCI/ADR-RES
OVCAR-3 = test system: OVCAR-3
OVCAR-4 = test system: OVCAR-4
OVCAR-5 = test system: OVCAR-5
OVCAR-8 = test system: OVCAR-8
PC-3 = test system: PC-3
RPMI-8226 = test system: RPMI-8226
RXF 393 = test system: RXF 393
SF-268 = test system: SF-268
SF-295 = test system: SF-295
SF-539 = test system: SF-539
SK-MEL-28 = test system: SK-MEL-28
SK-MEL-2 = test system: SK-MEL-2
SK-MEL-5 = test system: SK-MEL-5
SK-OV-3 = test system: SK-OV-3
SN12C = test system: SN12C
SNB-19 = test system: SNB-19
SNB-75 = test system: SNB-75
SW-620 = test system: SW-620
T47D = test system: T47D
TK-10 = test system: TK-10
U-251 = test system: U-251
UACC-257 = test system: UACC-257
UACC-62 = test system: UACC-62
UO-31 = test system: UO-31
NCI-H460 = test system: NCI-H460

Cc1cccc2c(N)c3cccc(C(=O)NCC[N+](C)(C)Cc4sc(N5CCOCC5)nc4[N+](=O)[O-])c3nc12
GI50 (786-0): 0.547 µM (active)
GI50 (A498): 11.4 µM (inactive)
GI50 (A549): 0.178 µM (active)
GI50 (ACHN): 0.381 µM (active)
GI50 (BT-549): 13.1 µM (inactive)
GI50 (CAKI-1): 0.344 µM (active)
GI50 (CCRF-CEM): 0.217 µM (active)
GI50 (COLO 205): 1.2 µM (inactive)
GI50 (DU-145): 4.01 µM (inactive)
GI50 (EKVX): 4.26 µM (inactive)
GI50 (HCC 2998): 1.41 µM (inactive)
GI50 (HCT-116): 1.93 µM (inactive)
GI50 (HCT-15): 1.08 µM
GI50 (HL-60): 0.071 µM (active)
GI50 (HOP-62): 0.491 µM (active)
GI50 (HOP-92): 15.2 µM (inactive)
GI50 (HT-29): 0.444 µM (active)
GI50 (Hs-578T): 0.748 µM (active)
GI50 (IGROV-1): 1.25 µM (inactive)
GI50 (K562): 1.16 µM (inactive)
GI50 (KM12): 2.43 µM (inactive)
GI50 (LOX IMVI): 0.685 µM (active)
GI50 (M14): 2.77 µM (inactive)
GI50 (MCF7): 0.438 µM (active)
GI50 (MDA-MB-231): 2.28 µM (inactive)
GI50 (MDA-MB-435): 5.21 µM (inactive)
GI50 (MDA-N): 3.82 µM (inactive)
GI50 (MOLT-4): 0.231 µM (active)
GI50 (Malme-3M): 5.93 µM (inactive)
GI50 (NCI-H226): 1.51 µM (inactive)
GI50 (NCI-H23): 2.26 µM (inactive)
GI50 (NCI-H522): 1.12 µM (inactive)
GI50 (NCI/ADR-RES): 3.12 µM (inactive)
GI50 (OVCAR-3): 2.09 µM (inactive)
GI50 (OVCAR-4): 4.11 µM (inactive)
GI50 (OVCAR-5): 1.32 µM (inactive)
GI50 (OVCAR-8): 2.12 µM (inactive)
GI50 (PC-3): 3.37 µM (inactive)
GI50 (RPMI-8226): 3.13 µM (inactive)
GI50 (RXF 393): 4.36 µM (inactive)
GI50 (SF-268): 23 µM (inactive)
GI50 (SF-295): 1.1 µM (active)
GI50 (SF-539): 1.12 µM (active)
GI50 (SK-MEL-28): 29.7 µM (inactive)
GI50 (SK-MEL-2): 22.6 µM (inactive)
GI50 (SK-MEL-5): 5.01 µM (inactive)
GI50 (SK-OV-3): 1.82 µM (inactive)
GI50 (SN12C): 1.65 µM (inactive)
GI50 (SNB-19): 4.82 µM (inactive)
GI50 (SNB-75): 5.86 µM (inactive)
GI50 (SW-620): 0.6 µM (active)
GI50 (T47D): 12.7 µM (inactive)
GI50 (TK-10): 10.3 µM (inactive)
GI50 (U-251): 3.04 µM (inactive)
GI50 (UACC-257): 6.9 µM (inactive)
GI50 (UACC-62): 3.89 µM (inactive)
GI50 (UO-31): 4.17 µM (inactive)

O=C(O)CNc1ccc(C(=O)O)cc1
GI50 (786-0): > 100 µM (inactive)
GI50 (A498): > 100 µM (inactive)
GI50 (A549): > 100 µM (inactive)
GI50 (ACHN): > 100 µM (inactive)
GI50 (BT-549): > 100 µM (inactive)
GI50 (CAKI-1): > 100 µM (inactive)
GI50 (CCRF-CEM): > 100 µM (inactive)
GI50 (COLO 205): > 100 µM (inactive)
GI50 (DU-145): > 100 µM (inactive)
GI50 (EKVX): > 100 µM (inactive)
GI50 (HCT-116): > 100 µM (inactive)
GI50 (HCT-15): > 100 µM
GI50 (HL-60): 2.85 µM (inactive)
GI50 (HOP-62): > 100 µM (inactive)
GI50 (HOP-92): > 100 µM (inactive)
GI50 (HT-29): > 100 µM (inactive)
GI50 (Hs-578T): > 100 µM (inactive)
GI50 (IGROV-1): > 100 µM (inactive)
GI50 (K562): > 100 µM (inactive)
GI50 (KM12): > 100 µM (inactive)
GI50 (LOX IMVI): > 100 µM (inactive)
GI50 (M14): > 100 µM (inactive)
GI50 (MCF7): > 100 µM (inactive)
GI50 (MDA-MB-231): > 100 µM (inactive)
GI50 (MDA-MB-435): > 100 µM (inactive)
GI50 (MDA-N): > 100 µM (inactive)
GI50 (MOLT-4): > 100 µM (inactive)
GI50 (Malme-3M): > 100 µM (inactive)
GI50 (NCI-H226): > 100 µM (inactive)
GI50 (NCI-H23): > 100 µM (inactive)
GI50 (NCI-H460): > 100 µM (inactive)
GI50 (NCI-H522): > 100 µM (inactive)
GI50 (NCI/ADR-RES): > 100 µM (inactive)
GI50 (OVCAR-3): > 100 µM (inactive)
GI50 (OVCAR-4): > 100 µM (inactive)
GI50 (OVCAR-5): > 100 µM (inactive)
GI50 (OVCAR-8): > 100 µM (inactive)
GI50 (PC-3): > 100 µM (inactive)
GI50 (RPMI-8226): > 100 µM (inactive)
GI50 (RXF 393): > 100 µM (inactive)
GI50 (SF-268): > 100 µM (inactive)
GI50 (SF-295): > 100 µM (inactive)
GI50 (SF-539): > 100 µM (inactive)
GI50 (SK-MEL-28): > 100 µM (inactive)
GI50 (SK-MEL-2): > 100 µM (inactive)
GI50 (SK-MEL-5): > 100 µM (inactive)
GI50 (SK-OV-3): > 100 µM (inactive)
GI50 (SN12C): > 100 µM (inactive)
GI50 (SNB-19): > 100 µM (inactive)
GI50 (SNB-75): > 100 µM (inactive)
GI50 (SW-620): > 100 µM (inactive)
GI50 (T47D): > 100 µM (inactive)
GI50 (TK-10): > 100 µM (inactive)
GI50 (U-251): > 100 µM (inactive)
GI50 (UACC-257): > 100 µM (inactive)
GI50 (UACC-62): > 100 µM (inactive)
GI50 (UO-31): > 100 µM (inactive)
